Patent US12435057B2, “Triazole carboxylic acids as LPA antagonists” (BRISTOL-MYERS SQUIBB COMPANY, priority 2019, dated 2025)
Values belong to the compound of their own block, whether it stands above or below them.

Legend:
[1] = test system: IPF patients; settings: 26-week clinical trial in IPF patients; cited from earlier work
[2] = molecular target: T1, human LPA1 (Homo sapiens, UniProt Q92633); experiment: LPA1 functional antagonist assay (calcium flux); assay type: cell-based; settings: CHO cells overexpressing human LPA1; inhibition of calcium flux induced by 10 nM LPA; read-out: hLPA1 IC50
T1 construct: expressed in transfected cells; host or cells: Chinese hamster ovary (CHO) cells
Procedure: The effectiveness of compounds of the present invention as LPA1 inhibitors can be determined in an LPA1 functional antagonist assay as follows: • Chinese hamster ovary cells overexpressing human LPA1 were plated overnight (15,000 cells/well) in poly-D-lysine coated 384-well microplates (Greiner bio-one, Cat #781946) in DMEM/F12 medium (Gibco, Cat #11039). Following overnight culture, cells were loaded with calcium indicator dye (AAT Bioquest Inc, Cat #34601) for 30 minutes at 37° C. The cells were then equilibrated to room temperature for 30 minutes before the assay. Test compounds solubilized in DMSO were transferred to 384 well non-binding surface plates (Corning, Cat #3575) using the Labcyte Echo acoustic dispense and diluted with assay buffer [[…] with calcium/magnesium (Gibco Cat #14025-092), 20 mM HEPES (Gibco Cat #15630-080) and 0.1% fatty acid free BSA (Sigma Cat #A9205)] to a final concentration of 0.5% DMSO. Diluted compounds were added to the cells by FDSS6000 (Hamamatsu) at final concentrations ranging from 0.08 nM to 5 μM. and were then incubated for 20 min at room temperature at which time LPA (Avanti Polar Lipids Cat #857130C) was added at final concentrations of 10 nM to stimulate the cells. The compound IC50 value was defined as the concentration of test compound which inhibited 50% of the calcium flux induced by LPA alone. IC50 values were determined by fitting data to a 4-parameter logistic equation (GraphPad Prism, San Diego CA). b. In Vivo Assays LPA Challenge with Plasma Histamine Evaluation.

[3] = test system: nerve-injured mice; settings: pretreatment; cited from earlier work
[4] = test system: pancreatic cancer cell lines; settings: cited from earlier work
[5] = test system: mouse epithelial renal cell line, MCT; settings: co-treatment with LPA, MCT cells; cited from earlier work
[6] = test system: UUO mice; settings: UUO mice treated with antagonist, compared with LPA1 (-/-) mice; cited from earlier work
[7] = test system: human foetal lung fibroblasts; settings: cited from earlier work

T1 sequence (Q92633 whole entry): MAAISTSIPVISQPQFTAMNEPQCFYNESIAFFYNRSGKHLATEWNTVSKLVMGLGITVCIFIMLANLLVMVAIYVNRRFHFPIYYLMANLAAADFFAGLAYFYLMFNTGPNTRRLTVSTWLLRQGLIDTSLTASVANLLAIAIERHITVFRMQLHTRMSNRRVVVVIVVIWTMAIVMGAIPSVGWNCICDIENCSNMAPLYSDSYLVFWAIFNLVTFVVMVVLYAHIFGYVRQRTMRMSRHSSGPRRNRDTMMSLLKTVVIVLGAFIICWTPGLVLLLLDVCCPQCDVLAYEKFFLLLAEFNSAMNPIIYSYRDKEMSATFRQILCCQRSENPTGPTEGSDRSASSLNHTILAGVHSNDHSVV

Structure (SMILES): Cc1noc(-c2ccc(-c3ccc(C4(C(=O)O)CC4)cc3)cc2)c1NC(=O)O[C@H](C)c1ccccc1 [BMS-986020]
- rate of FVC (forced vital capacity) decline [1]: significantly reduce

- IC50 [2]: 81 nM
Structure (SMILES): CN(CC1CCC1)C(=O)OCc1c(-c2ccc(O[C@@H]3CC[C@H]4C(C(=O)O)[C@@H]34)cn2)nnn1C (stereo partly shown) [Example 70]

- IC50 [2]: 114 nM
Structure (SMILES): CN(C(=O)OCc1c(-c2ccc(O[C@@H]3CC[C@H]4C(C(=O)O)[C@@H]34)cn2)nnn1C)C1CCCC1 (stereo partly shown) [Example 71]

- IC50 [2]: 60 nM
Structure (SMILES): Cc1nc(-c2nnn(C)c2COC(=O)N(C)CC2CCC2)ccc1O[C@@H]1C[C@H](C(=O)O)C[C@@H]2C[C@@H]21 [Example 73]

Structure (SMILES): C[C@@H](N)[C@H]1CC[C@H](C(=O)Nc2ccncc2)CC1 [Example Y-27632]
- allodynia and hyperalgesia [3]: completely abolished

Structure (SMILES): Cc1noc(-c2ccc(CSCCC(=O)O)cc2)c1NC(=O)OC(C)c1ccccc1Cl (stereo not shown) [Ki16425]
- LPA-induced and ascites-induced invasion activity ([4]; highly peritoneal metastatic pancreatic cancer cell line): blocked
- in vitro migration in response to LPA and ascites from pancreatic cancer patients ([4]; pancreatic cancer cell lines): effectively blocked
- LPA-induced expression of CTGF [5]: almost completely suppressed
- development of renal fibrosis [6]: closely resembled the profile of LPA1 (−/−) mice
- chemotaxis of human foetal lung fibroblasts induced by BAL from IPF patients [7]: blocked
